Test results published in paper PMC2637266, “Quantification of gamma-secretase modulation differentiates inhibitor compound selectivity between two substrates Notch and amyloid precursor protein” (Molecular Brain, 2008).
Where “and” joins values, the source holds several entries; their conditions need not be identical. Identical values can stand only once. Like-named read-outs stand apart in the source and are kept apart here.

Legend:
[1] = target: T1, γ-secretase cleavage of APP (Homo sapiens, UniProt P49768); experiment: Aβ in conditioned media of APP expressing HEK293 cells transfected with NotchΔE, ELISA; type: cell-based; conditions: for IC50: HEK293, 8 hr treatment; for Aβ levels in cultured cells: high doses
T1 construct: endogenous in cells; host or cells: HEK293 stably expressing Swedish mutant human APP695, transiently transfected with NotchΔE
Experimental: Since many compounds could behave differently in vitro versus in culture cells, cpd E and DAPT were tested in cultured cells (Fig. 2). HEK293 cells stably expressing Swedish mutant APP were transiently transfected with NotchΔE, a truncated Notch construct that is readily cleaved by the γ-secretase to generate NICD for downstream signaling transduction. NotchΔE expressing cells were treated with increasing concentrations of DAPT or cpd E. Cell lysates were subjected to WB for measuring the generation of NICD (Fig. 2A), and conditioned media were collected for Aβ measurement by ELISA (Fig. 2B,C).
(§1) Figure 2 Generation of NICD and Aβ from NotchΔE and APP expressing cells. A. Twenty four hrs after the construct carrying NotchΔE was transfected into APP expressing HEK293 cells, cells were treated with DAPT or cpd E for 8 hr and lysed for WB with antibody 1744 to specifically detect the N-terminus of NICD. Bottom panel, the antibody against α-tubulin was applied to normalize the amounts of lysates used for WB. B. Levels of NICD determined by WB were quantified by densitometry (dotted line). Levels of Aβ generated from the γ-secretase cleavage of APP in the presence of DAPT were determined by ELISA. […] C. NICD (dotted line) and Aβ (solid line) production from cpd E-treated cells were compared. […] D. A luciferase reporter construct driven by HES1 promoter was transfected into HEK293 cells followed by treatment with cpd E or DAPT.
Sandwich ELISAs for Aβ were performed as described. The capture antibodies, 2G3 (to Aβ residues 33–40) and 4G8 (to Aβ residues 17–24), were used for Aβ40 and Aβ total species, respectively. The detecting antibodies were biotinylated 82E1 (to Aβ residues 1–16) for Aβ1–40/total or biotinylated 266 for Aβx-40 species. The use of mid-region and C-terminal capturing antibodies and N-terminal detecting antibody for chimeric "Notch-Aβ-like" peptide (Nβ*) has been documented. The combination of several capture/detecting antibodies are use to measure Aβ and Nβ* derived from different precursors. The capture antibody 2G3 and detecting antibody 82E1 were used for measuring Nβ* from APP-α-Notch expressing cells. Since the APP-α-NOTCH is the fusion protein with its juxtamembrane portion of the APP ectodomain (the α-secretase cleavage region) replaced by the corresponding sequence in Notch, the epitopes in APP sequence could still be recognized by 2G3 (C-terminus) and 82E1 (N-terminus). […]
Human embryonic kidney (HEK) 293 cells stably expressing Swedish mutant human APP695 were transfected with different cDNA constructs and maintained in 200 μg/ml G418 (Invitrogen, Carlsbad, CA). […] Conditioned media were collected for ELISA, and cell lysates were analyzed by Western blot as described. […]

[2] = system: NICD dependent luciferase activity (Hes-1 reporter); experiment: Hes-Luc luciferase reporter assay in HEK293 cells co-transfected with NotchΔE; type: cell-based, human; conditions: at concentrations that completely blocked Aβ generation
Experimental: as §1
Semi-quantification of NICD levels was detected by WB, and the inhibition profile of DAPT (Fig. 2B) and cpd E (Fig. 2C) were compared on NICD and Aβ generation in cultured cells. […] Since Notch signaling and levels of NICD can be examined by quantifying the expression of the Notch target gene, a Hes-1 reporter construct (Hes-Luc) was generated by insertion of three Su(H) binding sequences in the pGL3-pro luciferase reporter vector. […]

[3] = system: γ-secretase, NICD generation; set-up: method as in PMID 16236717; conditions: 50 nM; cited from earlier work
[4] = system: γ-secretase, AICD generation; set-up: method as in PMID 16236717; conditions: 100 nM; cited from earlier work
brain Aβ = system: brain Aβ; set-up: method as in PMID 11145990; conditions: transgenic mouse, human familial AD linked V717F APP; cited from earlier work
NICD generation = system: NICD generation; set-up: method as in PMID 15319485; conditions: found as low as; read-out: IC50 for NICD generation in cultured cells; cited from earlier work
Aβ generation = system: Aβ generation; set-up: method as in PMID 10915801; conditions: found as low as; read-out: IC50 for Aβ generation in cultured cells; cited from earlier work
[5] = system: brain cortical γ-secretase; set-up: method as in PMID 15857627; conditions: guinea pig; cited from earlier work

Row | Compound | IC50 ([1]; read-out: concentration inhibiting levels of Aβ to 50% in cultured cells) | Aβ levels in cultured cells [1] | luciferase activities remained [2] | inhibition of NICD generation in vitro [3] | inhibition of AICD generation in vitro [4] | brain Aβ (brain Aβ) | IC50 ([1]; IC50 for Aβ generation (levels of Aβ reduced to 50%) in cultured cells) | IC50 (NICD generation) | IC50 (Aβ generation) | brain cortical γ-secretase activity [5] | plasma, CSF and brain Aβ levels [5]
1 | C[C@H](NC(=O)Cc1cc(F)cc(F)c1)C(=O)N[C@H](C(=O)OC(C)(C)C)c1ccccc1 [DAPT, N-[N-(3,5-Difluorophenacetyl-L-alanyl)]-S-phenylglycine t-Butyl Ester] | ~500 nM | efficiently reduced to almost undetectable levels | about 50% | partial inhibition | partial inhibition | dose-dependent, acute decrease in brain Aβ | – | – | – | – | –
2 | C[C@H](NC(=O)Cc1cc(F)cc(F)c1)C(=O)N[C@H]1N=C(c2ccccc2)c2ccccc2N(C)C1=O [cpd E, (S,S)-2-[2-(3,5-Difluorophenyl)-acetylamino]-N-(1-methyl-2-oxo-5-phenyl-2,3-dihydro-1H-benzo [e] [1,4]diazepin-3-yl)-propionamide] | – | efficiently reduced to almost undetectable levels | about 50% | – | – | – | ~8 nM and 5 nM | 1.7 nM | 0.3 nM | dose-dependent inhibition of brain cortical γ-secretase activity | decreases in plasma, CSF and brain Aβ levels
